pIC50: −log10 of the molar value. Counter-ions that a name gives are not always drawn.
Experiments:
PI3Kα = PI3Kα (Homo sapiens (Human), UniProt P42336); assay: PI3Kα enzymatic assay; assay type: biochemical; details: read-out: In vitro enzymatic activity (IC50) PI3Kα
Procedure: (§1) Assay 1-2: In Vitro Enzymatic Inhibitory Activity of the Present Compound
(§2) • 1.1 1-fold kinase buffer: 50 mM HEPES, pH 7.5, 10 mM MgCl2, 1 mM EGTA, 3 mM MnCl2, 0.01% Tween-20, 2 mM DTT; • 1.2 4-fold kinase solution: mTOR kinase was added to 1-fold kinase buffer to form 4-fold kinase solution with a final concentration of 2.5 nM; • 1.3 2-fold substrate and ATP solution: the substrate 4EBP1 and ATP were added to 1-fold kinase buffer to form 2-fold substrate solution with final concentration of 50 nM of 4EBP1 and 10.8 μM of ATP; • 1.4 4-fold test substance solutions: 100-fold test substance solutions in different gradient concentrations were formulated with 100% DMSO, and diluted by 25 folds with 1-fold kinase buffer to form 4-fold test substance solutions in different gradient concentrations. • 1.5 Preparation of detection solution: a detection solution containing 2-fold final concentrations of EDTA and 4EBP1 phosphorylated antibody was formulated, wherein the final concentration for EDTA was 8 mM, and the final concentration for the 4EBP phosphorylated antibody was 2 nM. 2. Procedure • 2.1 To each well of a 384-well plate was added 2.5 μL of the 4-fold test substance solutions in gradient concentrations. The replication was made. • 2.2 To each well was added 2.5 μL of 4-fold kinase solution, and then the plate was incubated for 10 mins; • 2.3 Then to each well was added 5 μL/of 2-fold substrate and ATP solution, and then the plate was incubated at room temperature for 1 hour; • 2.4 Finally, 10 μL of the detection solution was added to terminate the reaction. After 60 mins, the data Lance signal ([…]) was read from Envision. 3 Data treatment Inhibition rate (%)=[…] • wherein: • maximum refers to the reading at the DMSO control well. • minimum refers to the reading at the control well without kinase, • The data was input into Graphpad Prism 5.0 to plot and obtain the curve and IC50 value. PI3Kα Enzymatic Assay 1. […] After 15 mins, the data Lance signal ([…]) was read from Envision. 3 Data treatment Inhibition rate (%)=100−(sample value−minimum)/(maximum−minimum)×100 • wherein: • maximum refers to the reading at the control well without kinase, • minimum refers to the reading at the DMSO control well, • The data was input into Graphpad Prism 5.0 to plot and obtain the curve and IC50 value. […]

mTOR = mTOR (Homo sapiens (Human), UniProt P42345); assay: mTOR enzymatic assay; assay type: biochemical; details: read-out: In vitro enzymatic activity (IC50) mTOR
Procedure: as §1
1. Preparation of Agents:
as §2

PC-3 = assay: In vitro cytological inhibitory activity (XTT); assay type: cell-based; details: Homo sapiens, 72 hrs
Procedure: PC-3: Human prostatic carcinoma cell line;
(§3) 1. Preparation of agents and compounds:
(§4) • 1.1 Preparation of phosphoric acid buffering solution (PBS): 8 g NaCl, 0.2 g KCl, 1.44 g Na2HPO4 and 0.24 g KH2PO4 were weighed and added to 800 mL ultrapure water. The mixture was adjusted to pH=7.4, and ultrapure water was added to the metered volume of IL. Then the autoclaving was conducted for 20 mins. • 1.2 Preparation of XTT detection working solution: 100 mg (2,3-Bis-(2-methoxy-4-nitro-5-sulfophenyl)-2H-tetrazolium-5-carboxanilide); 2,3-bis(2-methoxy-4-nitro-5-sulfophenyl)-5-[(phenylamino)carbonyl]-2H-tetrazolium hydroxide (XTT) powder was weighed, and dissolved under protection from light 300 mL of phenol red-free and serum-free RPMI1640 culture, which had been warmed up to 50° C. The resulting mixture was filtered, packaged and used immediately or in one week. The complete process was conducted under protection from light. • 1.3 Preparation of the test compound • Preparation of the stock solution of the test compound: The test compound powder was dissolved in DMSO in a concentration of 10 mM. • Preparation of the gradiently diluted solution of the test compound: 10 mM of the stock solution of the test compound was successively and gradiently diluted with DMSO by 4 folds for 10 concentrations. […]

U87MG = assay: In vitro cytological inhibitory activity (XTT); assay type: cell-based; details: Homo sapiens, U-87 MG, 72 hrs
Procedure: U87MG: Human brain astrocytoblast cell line;
as §3, §4

A549 = assay: In vitro cytological inhibitory activity (XTT); assay type: cell-based; details: Homo sapiens, 72 hrs
Procedure: A549: Human lung cancer cell line;
as §3, §4

SKOV-3 = assay: In vitro cytological inhibitory activity (XTT); assay type: cell-based; details: Homo sapiens, SK-OV-3, 72 hrs
Procedure: SKOV-3: Human ovarian cancer cell line;
as §3, §4

[1] = In vivo pharmacokinetics assay in rat; details: male, SD, plasma, rats; for Vd: read-out: Vss
Source text: Test animals: male SD rats, weighing 190-260 g. Intravenous bolus injection (I.V.) and gavage (P.O.) administrations were each applied to three rats.
Compound 5, for both I.V and P.O administrations, was solubilized with a solution of 30% DMF+50% PEG400+20%(0.9% sodium chloride injection)(the pH being adjusted with a suitable amount of an aqueous hydrochloric acid solution (2 mol/L)).
Compound 6, for both I.V and P.O administrations, was solubilized with a solution of 30% DMF+30% PEG400+5%0.1 mol/lhydrochloric acid+[…] normal saline.
Compound 30 for I.V administration was solubilized with a solution of 30% DMF+50% PEG400+20% normal saline; Compound 30 for P.O administration was solubilized with a solution of 5% DMSO+30% polyoxyethylene castor oil+65% normal saline.
Compound 30 hydrochloride for I.V administration was solubilized with a solution of 30% DMF+50% PEG400+20% sterile water for injection.
I.V blood sampling time point: 0.083 h, 0.25 h, 0.5 h, 1 h, 2 h, 4 h, 6 h, 8 h and 24 h after the administration, P.O blood sampling time point: 0.17 h, 0.5 h, 1 h, 2 h, 4 h, 6 h, 8 h and 24 h after the administration.
About 100 μl of whole blood was taken at each time point, anticoagulated with heparin sodium, and centrifugated at 8,000 rpm in a high-speed centrifuge for 6 minutes to separate plasma, and the resulting plasma was frozen at −80° C. in a refrigerator.
The plasma sample was treated with a liquid-liquid extraction. 20 μL of plasma was taken. A solution of BEZ-235 (Novartis, Phase II) in tertbutylmethylether (600 μL, 10 ng/mL) was added as internal standard. The mixture was rotated vertically at 1500 rpm for 10 mins and then centrifugated at 12000 rpm for 5 mins. 400 μL of the supernate was taken and dried under nitrogen. The dried substance was redissolved in 200 μL methanol:water (7:3, V/V) for LC-MS/MS analysis.
Calculation Absolute bioavailability F%=[AUC]last (P.O)*Dose(I.V)/[AUC]last (I.V)*Dose(P.O)

Chain of PI3Kα (P42336 whole entry): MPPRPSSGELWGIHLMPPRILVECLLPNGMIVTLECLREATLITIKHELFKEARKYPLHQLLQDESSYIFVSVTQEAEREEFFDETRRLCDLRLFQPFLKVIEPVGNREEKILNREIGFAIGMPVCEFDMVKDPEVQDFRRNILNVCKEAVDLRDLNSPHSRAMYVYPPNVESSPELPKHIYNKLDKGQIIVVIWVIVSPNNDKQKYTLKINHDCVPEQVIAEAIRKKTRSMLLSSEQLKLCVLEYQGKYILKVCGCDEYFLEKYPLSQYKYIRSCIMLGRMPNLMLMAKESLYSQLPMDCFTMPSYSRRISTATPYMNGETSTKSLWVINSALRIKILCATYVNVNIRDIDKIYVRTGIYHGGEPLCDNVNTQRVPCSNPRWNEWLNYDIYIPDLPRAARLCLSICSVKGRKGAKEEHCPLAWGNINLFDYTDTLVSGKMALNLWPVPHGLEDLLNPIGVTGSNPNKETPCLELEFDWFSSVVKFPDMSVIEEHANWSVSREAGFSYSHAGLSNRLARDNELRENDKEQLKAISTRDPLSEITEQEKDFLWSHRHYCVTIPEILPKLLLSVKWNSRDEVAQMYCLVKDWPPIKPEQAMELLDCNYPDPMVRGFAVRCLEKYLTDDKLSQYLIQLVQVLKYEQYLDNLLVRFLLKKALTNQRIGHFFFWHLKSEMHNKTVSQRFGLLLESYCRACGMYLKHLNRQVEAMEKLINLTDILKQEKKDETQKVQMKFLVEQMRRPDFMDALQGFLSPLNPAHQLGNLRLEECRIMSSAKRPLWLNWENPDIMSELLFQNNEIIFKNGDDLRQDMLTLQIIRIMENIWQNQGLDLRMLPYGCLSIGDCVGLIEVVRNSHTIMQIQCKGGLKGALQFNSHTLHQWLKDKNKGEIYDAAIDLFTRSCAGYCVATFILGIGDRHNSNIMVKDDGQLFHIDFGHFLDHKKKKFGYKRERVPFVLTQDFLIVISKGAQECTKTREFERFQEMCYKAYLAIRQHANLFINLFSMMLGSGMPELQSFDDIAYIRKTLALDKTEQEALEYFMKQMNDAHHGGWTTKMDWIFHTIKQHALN
Chain of PI3Kα (P27986 whole entry partner): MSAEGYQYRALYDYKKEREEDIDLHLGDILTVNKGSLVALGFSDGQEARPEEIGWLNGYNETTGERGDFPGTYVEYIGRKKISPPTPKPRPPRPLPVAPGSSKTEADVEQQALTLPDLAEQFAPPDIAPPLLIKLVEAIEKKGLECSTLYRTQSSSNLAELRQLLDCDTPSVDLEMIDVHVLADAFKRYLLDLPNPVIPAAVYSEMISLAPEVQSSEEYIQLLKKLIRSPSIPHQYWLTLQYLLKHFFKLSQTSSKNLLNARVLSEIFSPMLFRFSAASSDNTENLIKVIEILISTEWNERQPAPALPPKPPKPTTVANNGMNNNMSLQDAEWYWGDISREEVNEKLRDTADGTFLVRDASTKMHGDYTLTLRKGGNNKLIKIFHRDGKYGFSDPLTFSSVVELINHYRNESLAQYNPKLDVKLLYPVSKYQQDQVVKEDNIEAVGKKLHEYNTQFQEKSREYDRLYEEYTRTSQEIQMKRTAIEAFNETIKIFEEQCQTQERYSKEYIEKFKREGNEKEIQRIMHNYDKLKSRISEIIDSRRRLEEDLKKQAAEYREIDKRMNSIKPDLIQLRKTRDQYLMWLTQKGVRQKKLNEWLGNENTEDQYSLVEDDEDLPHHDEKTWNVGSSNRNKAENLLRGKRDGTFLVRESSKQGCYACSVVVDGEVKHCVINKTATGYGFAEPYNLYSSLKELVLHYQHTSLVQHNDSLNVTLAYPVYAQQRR

COc1ccc(-c2ccc3ncc4c(=O)[nH]c(=O)n(-c5cccc(C(F)(F)F)c5)c4c3n2)cn1 [Compound 2, 9-(6-methoxypyridin-3-yl)-1-(3-(trifluoromethyl)phenyl)pyrimido[5,4-c][1,5]naphthyridine-2,4(1H,3H)-dione]
pIC50 (PI3Kα): 7.10
pIC50 (mTOR): 7.24

Cn1c(=O)c2cnc3ccc(-c4ccc(N)nc4)nc3c2n(-c2cccc(C(F)(F)F)c2)c1=O [Compound 6]
IC50 (PC-3): 35.8 nM
IC50 (U87MG): 37.6 nM
IC50 (A549): 89.5 nM
IC50 (SKOV-3): 63.1 nM
AUC(0-inf) ([1]; intravenous, I.V, 2 mg/kg): 4.47 µg·h/mL
AUC(0-t) ([1]; intravenous, I.V, 2 mg/kg): 4.45 µg·h/mL
clearance ([1]; intravenous, I.V, 2 mg/kg): 0.46 L/h/kg
half-life ([1]; intravenous, I.V, 2 mg/kg): 3.15 h
Vd ([1]; intravenous, I.V, 2 mg/kg): 1.95 L/kg
bioavailability ([1]; oral, P.O 4 mg/kg vs I.V 2 mg/kg, read-out: F % (absolute bioavailability)): 115%
AUC(0-inf) ([1]; oral, P.O, 4 mg/kg): 10.3 µg·h/mL
AUC(0-t) ([1]; oral, P.O, 4 mg/kg): 10.2 µg·h/mL
Cmax ([1]; oral, P.O, 4 mg/kg): 1.12 µg/mL
Tmax ([1]; oral, P.O, 4 mg/kg): 2 h
half-life ([1]; oral, P.O, 4 mg/kg): 3.92 h

COc1ncc(-c2ccc3ncc4c(=O)[nH]c(=O)n(-c5cccc(C(F)(F)F)c5)c4c3n2)cn1 [Compound 17, 9-(2-methoxypyrimidin-5-yl)-1-(3-(trifluoromethyl)phenyl)pyrimido[5,4-c][1,5]naphthyridine-2,4(1H,3H)-dione]
pIC50 (PI3Kα): 7.39
pIC50 (mTOR): 7.41

Nc1ncc(-c2ccc3ncc4c(=O)[nH]c(=O)n(-c5cccc(C(F)(F)F)c5)c4c3n2)cn1 [Compound 20, 9-(2-aminopyrimidin-5-yl)-1-(3-(trifluoromethyl)phenyl)pyrimido[5,4-c][1,5]naphthyridine-2,4(1H,3H)-dione]
pIC50 (PI3Kα): 7.82
pIC50 (mTOR): 8.58

O=c1[nH]c(=O)n(-c2cccc(C(F)(F)F)c2)c2c1cnc1ccc(-c3cnc4[nH]ccc4c3)nc12 [Compound 30 hydrochloride]
AUC(0-inf) ([1]; intravenous, I.V, 2 mg/kg): 1.69 µg·h/mL
AUC(0-t) ([1]; intravenous, I.V, 2 mg/kg): 1.68 µg·h/mL
clearance ([1]; intravenous, I.V, 2 mg/kg): 1.18 L/h/kg
half-life ([1]; intravenous, I.V, 2 mg/kg): 3.04 h
Vd ([1]; intravenous, I.V, 2 mg/kg): 2.49 L/kg
